Like-named read-outs stand apart in the source and are kept apart here.
Key:
Format in all cases: biochemical
[1] = target: full length recombinant Pim-1 (Homo sapiens (Human), UniProt P11309); experiment: Pim enzyme assay (HTRF, phosphorylation of biotinylated-BAD (S112) peptide), Pim-1; conditions: Pim-1 enzyme assay; read-out: Pim_1_IC50
[2] = target: full length recombinant Pim-2 (Homo sapiens (Human), UniProt Q9P1W9); experiment: Pim enzyme assay (HTRF, phosphorylation of biotinylated-BAD (S112) peptide), Pim-2; conditions: read-out: Pim2_IC50
[3] = target: full length recombinant Pim-3 (Homo sapiens (Human), UniProt Q86V86); experiment: Pim enzyme assay (HTRF, phosphorylation of biotinylated-BAD (S112) peptide), Pim-3; conditions: read-out: Pim3 IC50
Description: Pim-3 was purchased from Millipore (UK).
The phosphorylation of biotinylated-BAD (S112) peptide by full length recombinant Pim-1, Pim-2, or Pim-3 protein was detected with streptavidin:Allophycocyanin (APC) conjugate and a europium (Eu) labeled antibody directed against phosphorylated-BAD (S112). […] The fluorescence is directly proportional to the amount of phosphorylated BAD peptide present in the reaction.
A reference compound was included on each assay plate in order to validate that plate; on one plate of every assay run, two additional reference compounds were included.
The final buffer conditions were as follows: 60 mM Hepes, pH 7.0, 0.05% BSA, 2 mM DTT. Incubations were carried out at RT (22° C.) for 2 h for Pim-1, 1 h and 30 min for Pim-3, and 45 min for Pim-2. The reaction was then stopped by the addition of 3 mM EDTA, and fluorescence was measured by an HTRF® Rubystar microplate reader. For each plate, percent of control (POC) values were calculated for each well. Values for the IC50 IP were estimated using a standard 4-parameter logistic model.

Chain of full length recombinant Pim-1 (P11309 whole entry): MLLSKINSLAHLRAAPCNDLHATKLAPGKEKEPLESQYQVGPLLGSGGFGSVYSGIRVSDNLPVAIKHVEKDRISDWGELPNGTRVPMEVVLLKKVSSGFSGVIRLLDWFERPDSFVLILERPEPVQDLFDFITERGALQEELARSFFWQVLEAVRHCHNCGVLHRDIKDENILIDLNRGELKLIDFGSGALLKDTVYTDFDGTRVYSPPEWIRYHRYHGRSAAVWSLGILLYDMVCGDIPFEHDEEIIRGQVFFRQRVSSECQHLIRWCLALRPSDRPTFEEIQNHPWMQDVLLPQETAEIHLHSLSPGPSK
Chain of full length recombinant Pim-2 (Q9P1W9 whole entry): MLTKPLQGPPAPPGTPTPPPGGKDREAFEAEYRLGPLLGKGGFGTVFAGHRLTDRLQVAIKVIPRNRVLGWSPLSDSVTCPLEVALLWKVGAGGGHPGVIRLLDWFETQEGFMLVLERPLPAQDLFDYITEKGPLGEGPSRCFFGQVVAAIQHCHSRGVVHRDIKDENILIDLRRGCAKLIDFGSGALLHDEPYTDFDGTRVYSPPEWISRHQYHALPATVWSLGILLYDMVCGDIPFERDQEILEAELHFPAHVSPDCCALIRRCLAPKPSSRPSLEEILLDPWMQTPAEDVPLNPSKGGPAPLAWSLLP

SMILES | IC50 [1] [nM] | IC50 ([2]; Pim-2 enzyme assay) [nM] | IC50 ([3]; Pim-3 enzyme assay) [nM] | IC50 [3] [nM] | IC50 [2] [nM]
Nc1nnc(-c2ccc3[nH]cc(-c4c(F)cccc4F)c3c2)s1 [Example 138, 5-(3-(2,6-difluorophenyl)-1H-indol-5-yl)-1,3,4-thiadiazol-2-amine] | 199 | 348 | 96.7 | – | –
Nc1nnc(-c2ccc3[nH]cc(-c4cnc(N5CCOCC5)cn4)c3c2)s1 [Example 192, 5-(3-(5-(4-morpholinyl)-2-pyrazinyl)-1H-indol-5-yl)-1,3,4-thiadiazol-2-amine] | 908 | 2400 | 266 | – | –
Nc1nnc(-c2ccc3[nH]cc(-c4cccc(-n5ccccc5=O)n4)c3c2)s1 [Example 185, 6′-(5-(5-amino-1,3,4-thiadiazol-2-yl)-1H-indol-3-yl)-2H-1,2′-bipyridin-2-one] | 224 | 244 | 68.2 | – | –
CC(C)(Nc1nnc(-c2ccc3[nH]cc(-c4ncccn4)c3c2)o1)c1ccccc1 [Example 52, N-(2-phenylpropan-2-yl)-5-(3-(pyrimidin-2-yl)-1H-indol-5-yl)-1,3,4-oxadiazol-2-amine 2,2,2-trifluoroacetate] | 70.1 | 271 | 40.3 | – | –
CC(C)(Nc1nnc(-c2ccc3[nH]cc(-c4cncc(C5CC5)n4)c3c2)o1)c1ccccc1 [Example 50, 5-(3-(6-cyclopropylpyrazin-2-yl)-1H-indol-5-yl)-N-(2-phenylpropan-2-yl)-1,3,4-oxadiazol-2-amine] | 57.7 | 302 | – | 14.4 | –
CNc1nnc(-c2ccc3[nH]cc(-c4ccc(F)cc4F)c3c2)s1 [Example 23, 5-(3-(2,4-difluorophenyl)-1H-indol-5-yl)-N-methyl-1,3,4-thiadiazol-2-amine] | 423 | 1550 | 136 | – | –
Nc1nnc(-c2ccc3[nH]cc(-c4cccc(F)n4)c3c2)s1 [Example 209, 5-(3-(6-fluoro-2-pyridinyl)-1H-indol-5-yl)-1,3,4-thiadiazol-2-amine] | 705 | 558 | 149 | – | –
Brc1nnc(-c2ccc3[nH]cc(-c4cccc(N5CCOCC5)n4)c3c2)s1 [Example 27, 4-(6-(5-(5-bromo-1,3,4-thiadiazol-2-yl)-1H-indol-3-yl)pyridin-2-yl)morpholine] | 1310 | > 3000 | 399 | – | –
CC(=O)Nc1cccc(CNc2nnc(-c3ccc4[nH]cc(-c5ccccc5F)c4c3)s2)c1 [Example 145, N-(3-(((5-(3-(2-fluorophenyl)-1H-indol-5-yl)-1,3,4-thiadiazol-2-yl)amino)methyl)phenyl)acetamide] | 308 | 2170 | 308 | – | –
Nc1nnc(-c2ccc3[nH]cc(-c4cnn(CCN5CCOCC5)c4)c3c2)o1 [Example 81, 5-(3-(1-(2-(4-morpholinyl)ethyl)-1H-pyrazol-4-yl)-1H-indol-5-yl)-1,3,4-oxadiazol-2-amine] | 101 | 273 | 147 | – | –
Nc1cccc(-c2c[nH]c3ccc(-c4nnc(N)s4)cc23)n1 [Example 190, 6-(5-(5-amino-1,3,4-thiadiazol-2-yl)-1H-indol-3-yl)-2-pyridinamine] | 705 | 977 | 186 | – | –
Cc1ccccc1-c1ccnc(-c2c[nH]c3ccc(-c4nnc(N)o4)cc23)n1 [Example 124, 5-(3-(4-(2-methylphenyl)-2-pyrimidinyl)-1H-indol-5-yl)-1,3,4-oxadiazol-2-amine] | 27.9 | 33.4 | 17.2 | – | –
Nc1nnc(-c2ccc3[nH]cc(-c4cncc(C(=O)N5CCOCC5)c4)c3c2)o1 [Example 82, 5-(3-(5-(4-morpholinylcarbonyl)-3-pyridinyl)-1H-indol-5-yl)-1,3,4-oxadiazol-2-amine] | 2350 | 1780 | 2380 | – | –
Nc1nnc(-c2ccc3[nH]cc(-c4cnc(N5CCCC5=O)cn4)c3c2)s1 [Example 194, 1-(5-(5-(5-amino-1,3,4-thiadiazol-2-yl)-1H-indol-3-yl)-2-pyrazinyl)-2-pyrrolidinone] | 945 | 1040 | 509 | – | –
Nc1nnc(-c2ccc3[nH]cc(-c4cccc(NC5CCCCC5)n4)c3c2)s1 [Example 205, 6-(5-(5-amino-1,3,4-thiadiazol-2-yl)-1H-indol-3-yl)-N-cyclohexyl-2-pyridinamine] | 110 | 227 | 21.6 | – | –
Nc1cc(-c2c[nH]c3ccc(-c4nnc(N)s4)cc23)ccn1 [Example 186, 4-(5-(5-amino-1,3,4-thiadiazol-2-yl)-1H-indol-3-yl)-2-pyridinamine] | 260 | 270 | 83.8 | – | –
Nc1ncc(-c2ccc3[nH]cc(-c4cnc5ccccc5c4)c3c2)s1 [Example 20, 5-(3-(quinolin-3-yl)-1H-indol-5-yl)thiazol-2-amine] | 281 | – | 267 | – | 2710
Nc1nnc(-c2ccc3[nH]cc(-c4cccc(C(F)(F)F)n4)c3c2)s1 [Example 182, 5-(3-(6-(trifluoromethyl)-2-pyridinyl)-1H-indol-5-yl)-1,3,4-thiadiazol-2-amine] | 121 | 135 | 22.5 | – | –
COc1ccc(CNc2nnc(-c3ccc4[nH]cc(-c5cncc(C6CC6)n5)c4c3)o2)cc1 [Example 36, 5-(3-(6-Cyclopropylpyrazin-2-yl)-1H-indol-5-yl)-N-(4-methoxybenzyl)-1,3,4-oxadiazol-2-amine 2,2,2-trifluoroacetate] | 43 | 212 | 11.4 | – | –
COC[C@@H]1CCCN1c1ccnc(-c2c[nH]c3ccc(-c4nnc(N)o4)cc23)n1 [Example 109, 5-(3-(4-((2S)-2-(methoxymethyl)-1-pyrrolidinyl)-2-pyrimidinyl)-1H-indol-5-yl)-1,3,4-oxadiazol-2-amine] | 32.2 | 26.8 | 13 | – | –
CC(C)Oc1cc(F)cc(-c2c[nH]c3ccc(-c4nnc(N)o4)cc23)c1 [Example 79, 5-(3-(3-fluoro-5-(1-methylethoxy)phenyl)-1H-indol-5-yl)-1,3,4-oxadiazol-2-amine] | 154 | 185 | 85.8 | – | –
CC(C)Oc1cccc(-c2c[nH]c3ccc(-c4nnc(N)o4)nc23)c1 [Example 126, 5-(3-(3-(1-methylethoxy)phenyl)-1H-pyrrolo[3,2-b]pyridin-5-yl)-1,3,4-oxadiazol-2-amine] | 272 | 244 | 84.8 | – | –

Continued, in another order:

IC50 [1] [nM] | IC50 ([2]; Pim-2 enzyme assay) [nM] | IC50 ([3]; Pim-3 enzyme assay) [nM] | SMILES | IC50 [3] [nM] | IC50 [2] [nM]
2360 | > 3000 | 416 | CNc1nnc(-c2ccc3[nH]cc(-c4cccc(OC(F)(F)F)c4)c3c2)s1 [Example 225, N-methyl-5-(3-(3-(trifluoromethoxy)phenyl)-1H-indol-5-yl)-1,3,4-thiadiazol-2-amine] | – | –
1030 | 739 | 170 | CNc1nnc(-c2ccc3[nH]cc(-c4cccc(F)n4)c3c2)s1 [Example 239, 5-(3-(6-fluoro-2-pyridinyl)-1H-indol-5-yl)-N-methyl-1,3,4-thiadiazol-2-amine] | – | –
171 | 559 | 81.2 | CC(Nc1nnc(-c2ccc3[nH]cc(-c4cnccn4)c3c2)o1)c1ccccc1 (stereo not drawn) [Example 268, N-(1-phenylethyl)-5-(3-(2-pyrazinyl)-1H-indol-5-yl)-1,3,4-oxadiazol-2-amine] | – | –
636 | 1230 | 274 | CNc1nnc(-c2ccc3[nH]cc(-c4cccnc4)c3c2)s1 [Example 220, N-methyl-5-(3-(3-pyridinyl)-1H-indol-5-yl)-1,3,4-thiadiazol-2-amine] | – | –
142 | 192 | 28.7 | Nc1cncc(-c2c[nH]c3ccc(-c4nnc(N)s4)cc23)n1 [Example 210, 6-(5-(5-amino-1,3,4-thiadiazol-2-yl)-1H-indol-3-yl)-2-pyrazinamine] | – | –
744 | 1490 | 158 | CNc1nnc(-c2ccc3[nH]cc(-c4cccc(N)c4)c3c2)s1 [Example 221, 5-(3-(3-aminophenyl)-1H-indol-5-yl)-N-methyl-1,3,4-thiadiazol-2-amine] | – | –
551 | 686 | 204 | CNc1nnc(-c2ccc3[nH]cc(-c4ccncc4)c3c2)s1 [Example 219, N-methyl-5-(3-(4-pyridinyl)-1H-indol-5-yl)-1,3,4-thiadiazol-2-amine] | – | –
325 | 538 | 114 | CNc1nnc(-c2ccc3[nH]cc(-c4cccc(N5CCCCC5=O)n4)c3c2)s1 [Example 236, 1-(6-(5-(5-(methylamino)-1,3,4-thiadiazol-2-yl)-1H-indol-3-yl)-2-pyridinyl)-2-piperidinone] | – | –
234 | 1630 | 181 | CNc1nnc(-c2ccc3[nH]cc(-c4cnc5ccccc5c4)c3c2)s1 [Example 217, N-methyl-5-(3-(3-quinolinyl)-1H-indol-5-yl)-1,3,4-thiadiazol-2-amine] | – | –
323 | 677 | 123 | c1ccc(-c2nnc(-c3ccc4[nH]cc(-c5nccc(C6CC6)n5)c4c3)o2)cc1 [Example 255, 3-(4-cyclopropyl-2-pyrimidinyl)-5-(5-phenyl-1,3,4-oxadiazol-2-yl)-1H-indole] | – | –

From patent US9321756B2, “Azole compounds as PIM inhibitors” (priority 2011, dated 2016)
